Source: US6706740B2, “Fungicidal heterocyclic aromatic amides and their compositions, methods of use and preparation” (Dow AgroSciences LLC, priority 1999, dated 2004)
Like-named read-outs stand apart in the source and are kept apart here.

How the values were obtained:
Ustilago maydis (USTIMA) = test: microbe, parasite or virus in culture; assay type: cell-based; settings: Mycosarcoma maydis, read-out: USTIMA in vitro Growth Inhibition
[1] = system: Puccinia recondita—PUCCRT; test: Brown Rust of Wheat, in vivo whole plant, 24 Hour Protectant; settings: for pest or weed control at 100 ppm: Puccinia, read-out: PUCCRT in vivo 1 Day Protectant
Erysiphe graminis—ERYSGT = test: Powdery Mildew of Wheat, in vivo whole plant, 24 Hour Protectant; settings: Erysiphe, read-out: ERYSGT in vivo 1 Day Protectant
[2] = system: Rhizoctonia solani (RHIZSO); test: microbe, parasite or virus in culture; assay type: cell-based; settings: Rhizoctonia solani, read-out: RHIZSO in vitro Growth Inhibition
[3] = system: Phytophthora infestans—PHYTIN; test: whole plant or invertebrate; assay type: in vivo; settings: Phytophthora, in Solanum lycopersicum, 24 h, read-out: PHYTIN in vivo 1 Day Protectant
Septoria tritici—SEPTTR = test: Leaf Blotch of Wheat, in vivo whole plant, 24 Hour Protectant; settings: for pest or weed control at 100 ppm: Zymoseptoria tritici, 24 h, read-out: SEPTTR in vivo 1 Day Protectant
[4] = system: Magnaporthe grisea (Pyricularia oryzae—PYRIOR); test: microbe, parasite or virus in culture; assay type: cell-based; settings: Pyricularia oryzae, read-out: PYRIOR in vitro Growth Inhibition
[5] = system: Mycosphaerella graminicola (Septoria tritici—SEPTTR); test: In vitro fungal growth inhibition, Mycosphaerella graminicola (SEPTTR); assay type: cell-based; settings: Zymoseptoria tritici, read-out: SEPTTR in vitro Growth Inhibition
[6] = system: Leptosphaeria nodorum—LEPTNO; test: Glume Blotch of Wheat, in vivo whole plant, 24 Hour Protectant; settings: for pest or weed control at 100 ppm: Leptosphaeria, read-out: LEPTNO in vivo 1 Day Protectant
[7] = system: Stagonospora nodorum (Leptosphaeria nodorum—LEPTNO); test: In vitro fungal growth inhibition, Stagonospora nodorum (LEPTNO); assay type: cell-based; settings: Leptosphaeria, read-out: LEPTNO in vitro Growth Inhibition
[8] = system: Phytophthora infestans (PHYTIN); test: microbe, parasite or virus in culture; assay type: cell-based; settings: Phytophthora infestans, read-out: PHYTIN in vitro Growth Inhibition
[9] = 100 ppm spray, wheat, 24 hour protectant, control of fungal infection vs untreated plants
[10] = 100 ppm spray, 24 hour protectant, wheat, control of fungal infection vs untreated plants
[11] = 100 ppm spray, wheat, 24 hour protectant, % control of fungal infection vs untreated plants
[12] = wheat plants sprayed at 100 ppm, inoculated after 24 hours, control of fungal infection vs untreated plants

Row | Structure (SMILES) | inhibition at 25 ppm (Ustilago maydis (USTIMA)) [%] | pest or weed control at 100 ppm [1, 9] [%] | pest or weed control at 100 ppm (Erysiphe graminis—ERYSGT; [9]) [%] | inhibition at 25 ppm [2] [%] | pest or weed control at 100 ppm [3] [%] | pest or weed control at 100 ppm (Septoria tritici—SEPTTR; [9]) [%] | inhibition at 25 ppm [4] [%] | inhibition at 25 ppm ([5]; 25 ppm in growth medium) [%] | pest or weed control at 100 ppm [6, 9] [%] | inhibition at 25 ppm ([7]; 25 ppm in growth medium) [%] | inhibition at 25 ppm [8] [%] | pest or weed control at 100 ppm [1, 10] [%] | pest or weed control at 100 ppm (Erysiphe graminis—ERYSGT; [10]) [%] | pest or weed control at 100 ppm (Septoria tritici—SEPTTR; [10]) [%] | further results
1 | COc1ccnc(C(=O)NC2O[C@H](CO)[C@H]3OC(C)(C)O[C@@H]23)c1O (stereo partly shown) [Compound 329] | < 80 | 25 to 74 | < 25 | < 80 | < 25 | 25 to 74 | < 80 | < 80 | 25 to 74 | < 80 | < 80 | – | – | – | –
2 | COc1ccnc(C(=O)N[C@@H](COCc2ccccc2)C(=O)O[C@@H](C)[C@H](OC(=O)C(C)C)[C@@H](Cc2ccccc2)C(=O)OCc2ccccc2)c1O [Compound 342] | > 80 | – | 25 to 74 | < 80 | < 25 | 25 to 74 | < 80 | < 80 | 25 to 74 | < 80 | < 80 | – | – | – | PUCCRT in vivo 1 Day Protectant [1, 9]: + +
3 | COc1ccnc(C(=O)N[C@H]2CC(C)(C)[C@H](O)C(C)(C)C2)c1O [Compound 264, trans-4-HYDROXY-3,3,5,5-TETRAMETHYLPICOLINAMIDE] | < 80 | – | – | < 80 | < 25 | – | < 80 | < 80 | – | < 80 | < 80 | 25 to 74 | < 25 | 25 to 74 | pest or weed control at 100 ppm [6, 10]: < 25%
4 | COc1ccnc(C(=O)NC2CC(C)(C)CC(C)(COCC(Cl)CCl)C2)c1O (stereo not shown) [Compound 257] | > 80 | – | – | < 80 | < 25 | – | < 80 | > 80 | – | > 80 | > 80 | 25 to 74 | < 25 | 25 to 74 | LEPTNO in vivo 1 Day Protectant [6, 10]: + +
5 | COc1ccnc(C(=O)NCCCc2cccnc2)c1O [Compound 243] | < 80 | – | – | < 80 | < 25 | – | < 80 | < 80 | – | < 80 | < 80 | 25 to 74 | < 25 | 25 to 74 | pest or weed control at 100 ppm [6, 10]: 25 to 74%
6 | COc1ccnc(C(=O)N[C@H]2COC(=O)[C@H](Cc3ccccc3)[C@@H](OC(=O)C(C)C)[C@H](C)OC2=O)c1OC(=O)O[C@@H]1C[C@H](C)CC[C@H]1C(C)C [Compound 690] | < 80 | – | – | < 80 | < 25 | – | < 80 | < 80 | – | < 80 | < 80 | – | – | – | pest or weed control at 100 ppm [1, 11]: 25 to 74%; pest or weed control at 100 ppm (Erysiphe graminis—ERYSGT; [11]): < 25%; SEPTTR in vivo 1 Day Protectant (Septoria tritici—SEPTTR; [11]): + +; pest or weed control at 100 ppm [6, 11]: 25 to 74%
7 | COc1ccnc(C(=O)N[C@H]2COC(=O)[C@H](Cc3ccccc3)[C@@H](OC(C)=O)[C@H](C)OC2=O)c1OC(C)=O [Compound 596] | < 80 | – | – | < 80 | < 25 | – | > 80 | < 80 | – | < 80 | > 80 | – | – | – | PUCCRT in vivo 1 Day Protectant [1, 11]: + +; pest or weed control at 100 ppm (Erysiphe graminis—ERYSGT; [11]): < 25%; pest or weed control at 100 ppm (Septoria tritici—SEPTTR; [11]): 25 to 74%; LEPTNO in vivo 1 Day Protectant [6, 11]: + +
8 | CCCO[C@@H]1[C@@H](OCCC)[C@H](OCCC)CO[C@H]1NC(=O)c1nccc(OC)c1O [Compound 331] | < 80 | < 25 | < 25 | < 80 | < 25 | < 25 | > 80 | < 80 | 25 to 74 | < 80 | < 80 | – | – | – | –
9 | COc1ccnc(C(=O)N[C@H]2COC(=O)[C@H](Cc3ccccc3)[C@@H](OC(=O)C3CCCC3)[C@H](C)OC2=O)c1O [Compound 391] | > 80 | 25 to 74 | < 25 | < 80 | < 25 | 25 to 74 | > 80 | > 80 | – | > 80 | < 80 | – | – | – | LEPTNO in vivo 1 Day Protectant [6, 9]: + +
10 | COc1ccnc(C(=O)NC2CC(C)(C)CC(C)(C3CC3)C2)c1O (stereo not shown) [Compound 252] | < 80 | – | – | > 80 | 25 to 74 | – | > 80 | > 80 | – | > 80 | > 80 | 25 to 74 | < 25 | 25 to 74 | pest or weed control at 100 ppm [6, 10]: 25 to 74%
11 | COC(=O)C(COC(=O)CC(C)OC(=O)C(C)C)NC(=O)c1nccc(OC)c1O (stereo not shown) [Compound 347] | < 80 | 25 to 74 | < 25 | < 80 | < 25 | < 25 | < 80 | < 80 | 25 to 74 | < 80 | < 80 | – | – | – | –
12 | COc1ccnc(C(=O)N[C@H]2[C@@H](OC(C)=O)O[C@H](COC(C)=O)[C@@H](OC(C)=O)[C@@H]2OC(C)=O)c1O [Compound 335] | < 80 | < 25 | < 25 | < 80 | 25 to 74 | < 25 | < 80 | < 80 | 25 to 74 | < 80 | < 80 | – | – | – | –
13 | COc1ccnc(C(=O)NC2CC(C)(C)C=CC(C)C2C)c1O (stereo not shown) [Compound 279] | < 80 | – | – | < 80 | 25 to 74 | – | < 80 | > 80 | – | > 80 | > 80 | < 25 | 25 to 74 | 25 to 74 | pest or weed control at 100 ppm [6, 10]: 25 to 74%
14 | O=C(Nc1cccc(Oc2ccccc2C(F)(F)F)c1)c1nc(Br)ccc1O [Compound 494] | < 80 | – | – | < 80 | < 25 | – | < 80 | – | – | – | < 80 | – | – | – | pest or weed control at 100 ppm [1, 12]: < 25%; pest or weed control at 100 ppm (Erysiphe graminis—ERYSGT; [12]): < 25%; pest or weed control at 100 ppm (Septoria tritici—SEPTTR; [12]): 25 to 74%; inhibition at 25 ppm ([5]; 25 ppm in the growth medium): < 80%; pest or weed control at 100 ppm [6, 12]: < 25%; inhibition at 25 ppm ([7]; 25 ppm in the growth medium): < 80%
